Laboratory results: patent publication US8354269B2 (priority 2008, dated 2013)
Like-named read-outs stand apart in the source and are kept apart here.

Experiments:
[1] = tested on: Clostridium carboxidivorans DSM15243;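 note: growth tracked as optical density at 600 nm, while ethanol and acetate were quantified in culture samples by HPLC with a refractive index detector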
From the text: Growth was monitored by measuring the optical density at 600 nm (OD600nm) and metabolites were detected by HPLC.

[2] = tested on: Clostridium autoethanogenum culture 19630
Experimental: Sterile 234 ml serum bottles were purged three times with 95% CO, 5% CO2 gas and then evacuated to a vacuum of −5 psi. The serum bottles were charged with 25 ml of LM33 media. Additional NiCl2 solutions were optionally added to the serum bottle (to final concentrations of 0.1 mM and 1 mM) which were inoculated with 1 ml of an actively growing Clostridium autoethanogenum culture 19630 from a continuous bioreactor. The headspace of the serum bottle was then filled with CO containing gas to 30 psi (composition 100% CO). The serum bottles were incubated at 37° C. and continuously agitated. Samples were taken at intervals and the headspace was purged and refreshed up to 30 psi following sampling.

[3] = tested on: Clostridium autoethanogenum culture 19630; conditions: NiCl2 1 mM, fructose 3 g/L
Experimental: To determine the cell density in these experiments, the absorbance of the samples was measured at 600 nm (spectrophotometer) and the dry mass determined by extrapolation.
High Performance Liquid Chromatography (HPLC) was used to characterize the level of substrates and products such as for acetate, ethanol, fructose, xylose and pyruvate. HPLC System Agilent 1100 Series. Mobile Phase: 0.0025N Sulphuric Acid. Flow and pressure: 0.800 mL/min. Column: Alltech IOA; Catalog #9648, 150×6.5 mm, particle size 5 μm. Temperature of column: 60° C. Detector: Refractive Index. Temperature of detector: 45° C.
Method for sample preparation: 400 μL of sample+50 μL of 0.15M ZnSO4+50 μL of 0.15M Ba(OH)2 into an Eppendorf tube. Centrifuge 10 min at 12,000 rpm, 4° C. Transfer 200 μL supernatant into an HPLC vial and inject into the HPLC instrument 5 μL.
Sterile 234 ml serum bottles were purged three times with 95% CO, 5% CO2 gas and then evacuated to a vacuum of −5 psi. The serum bottles were charged with 25 ml of LM33 media. NiCl2 solution (to final concentrations of 1 mM) and fructose (3 g/L) were added to the serum bottle which was inoculated with 1 ml of an actively growing Clostridium autoethanogenum culture 19630 from a continuous bioreactor. The headspace of the serum bottle was then filled with CO containing gas to 30 psi (composition 100% CO). The serum bottles were incubated at 37° C. and continuously agitated. Samples were taken at intervals and the headspace was purged and refreshed up to 30 psi following sampling.

**Q.** Which results are given for `[Cl][Ni][Cl]` [Nickel, nickel chloride]?
**A.** Ethanol ([1]; Nickel 200 μM, 0 h): 0.18 ± 0.01 g/L; OD600 nm ([1]; Nickel 200 μM, 0 h): 0.010 ± 0.001; Acetate ([1]; Nickel 200 μM, 30 h): 0.37 ± 0.13 g/L; Ethanol ([1]; Nickel 200 μM, 30 h): 0.18 ± 0.01 g/L; OD600 nm ([1]; Nickel 200 μM, 30 h): 0.185 ± 0.052; Acetate ([1]; Nickel 200 μM, 54 h): 0.38 ± 0.02 g/L; Ethanol ([1]; Nickel 200 μM, 54 h): 0.33 ± 0.02 g/L; OD600 nm ([1]; Nickel 200 μM, 54 h): 0.239 ± 0.028; Acetate ([1]; Nickel 200 μM, 102 h): 0.43 ± 0.09 g/L; Ethanol ([1]; Nickel 200 μM, 102 h): 0.33 ± 0.19 g/L; OD600 nm ([1]; Nickel 200 μM, 102 h): 0.274 ± 0.025; Acetate ([1]; Nickel 200 μM, 127 h): 0.61 ± 0.02 g/L; Ethanol ([1]; Nickel 200 μM, 127 h): 6.69 ± 0.08 g/L; OD600 nm ([1]; Nickel 200 μM, 127 h): 0.285 ± 0.046; Ethanol ([1]; Nickel 400 μM, 0 h): 0.18 ± 0.06 g/L; OD600 nm ([1]; Nickel 400 μM, 0 h): 0.011 ± 0.002; Acetate ([1]; Nickel 400 μM, 30 h): 0.35 ± 0.02 g/L; Ethanol ([1]; Nickel 400 μM, 30 h): 0.33 ± 0.11 g/L; OD600 nm ([1]; Nickel 400 μM, 30 h): 0.271 ± 0.001; Acetate ([1]; Nickel 400 μM, 54 h): 0.41 ± 0.02 g/L; Ethanol ([1]; Nickel 400 μM, 54 h): 0.75 ± 0.01 g/L; OD600 nm ([1]; Nickel 400 μM, 54 h): 0.310 ± 0.037; Acetate ([1]; Nickel 400 μM, 102 h): 0.37 ± 0.19 g/L; Ethanol ([1]; Nickel 400 μM, 102 h): 0.86 ± 0.03 g/L; OD600 nm ([1]; Nickel 400 μM, 102 h): 0.304 ± 0.035; Acetate ([1]; Nickel 400 μM, 127 h): 0.47 ± 0.03 g/L; Ethanol ([1]; Nickel 400 μM, 127 h): 0.89 ± 0.08 g/L; OD600 nm ([1]; Nickel 400 μM, 127 h): 0.291 ± 0.026; Ethanol ([1]; Nickel 700 μM, 0 h): 0.20 ± 0.01 g/L; OD600 nm ([1]; Nickel 700 μM, 0 h): 0.010 ± 0.001; Acetate ([1]; Nickel 700 μM, 30 h): 0.34 ± 0.01 g/L; Ethanol ([1]; Nickel 700 μM, 30 h): 0.27 ± 0.01 g/L; OD600 nm ([1]; Nickel 700 μM, 30 h): 0.402 ± 0.014; Acetate ([1]; Nickel 700 μM, 54 h): 0.40 ± 0.05 g/L; Ethanol ([1]; Nickel 700 μM, 54 h): 0.84 ± 0.03 g/L; OD600 nm ([1]; Nickel 700 μM, 54 h): 0.689 ± 0.097; Acetate ([1]; Nickel 700 μM, 102 h): 0.65 ± 0.06 g/L; Ethanol ([1]; Nickel 700 μM, 102 h): 0.86 ± 0.25 g/L; OD600 nm ([1]; Nickel 700 μM, 102 h): 0.519 ± 0.078; Acetate ([1]; Nickel 700 μM, 127 h): 0.63 ± 0.32 g/L; Ethanol ([1]; Nickel 700 μM, 127 h): 1.01 ± 0.17 g/L; OD600 nm ([1]; Nickel 700 μM, 127 h): 0.584 ± 0.088; Ethanol ([1]; Nickel 1000 μM, 0 h): 0.18 ± 0.01 g/L; OD600 nm ([1]; Nickel 1000 μM, 0 h): 0.009 ± 0.001; Acetate ([1]; Nickel 1000 μM, 30 h): 0.29 ± 0.04 g/L; Ethanol ([1]; Nickel 1000 μM, 30 h): 0.44 ± 0.09 g/L; OD600 nm ([1]; Nickel 1000 μM, 30 h): 0.705 ± 0.014; Acetate ([1]; Nickel 1000 μM, 54 h): 0.39 ± 0.02 g/L; Ethanol ([1]; Nickel 1000 μM, 54 h): 0.74 ± 0.05 g/L; OD600 nm ([1]; Nickel 1000 μM, 54 h): 1.058 ± 0.006; Acetate ([1]; Nickel 1000 μM, 102 h): 0.62 ± 0.21 g/L; Ethanol ([1]; Nickel 1000 μM, 102 h): 0.88 ± 0.03 g/L; OD600 nm ([1]; Nickel 1000 μM, 102 h): 0.943 ± 0.002; Acetate ([1]; Nickel 1000 μM, 127 h): 0.47 ± 0.11 g/L; Ethanol ([1]; Nickel 1000 μM, 127 h): 1.04 ± 0.02 g/L; OD600 nm ([1]; Nickel 1000 μM, 127 h): 0.981 ± 0.088; total microbial cell density ([2]; 0.1 mM nickel above LM33): 1.1 g/L; total microbial cell density ([2]; 1 mM nickel above LM33): 1.2 g/L; Acetate ([2]; Additional Nickel 0.1 mM, 18 h): 0.57 g/L; Cell density ([2]; Additional Nickel 0.1 mM, 18 h): 0.14 g/L; Ethanol ([2]; Additional Nickel 0.1 mM, 18 h): 0.37 g/L; Acetate ([2]; Additional Nickel 0.1 mM, 30 h): 0.61 g/L; Cell density ([2]; Additional Nickel 0.1 mM, 30 h): 0.54 g/L; Ethanol ([2]; Additional Nickel 0.1 mM, 30 h): 2.63 g/L; Acetate ([2]; Additional Nickel 0.1 mM, 80 h): 0.38 g/L; Cell density ([2]; Additional Nickel 0.1 mM, 80 h): 1.08 g/L; Ethanol ([2]; Additional Nickel 0.1 mM, 80 h): 7.14 g/L; Acetate ([2]; Additional Nickel 1 mM, 18 h): 0.48 g/L; Cell density ([2]; Additional Nickel 1 mM, 18 h): 0.18 g/L; Ethanol ([2]; Additional Nickel 1 mM, 18 h): 0.47 g/L; Acetate ([2]; Additional Nickel 1 mM, 30 h): 0.85 g/L; Cell density ([2]; Additional Nickel 1 mM, 30 h): 0.59 g/L; Ethanol ([2]; Additional Nickel 1 mM, 30 h): 2.59 g/L; Acetate ([2]; Additional Nickel 1 mM, 80 h): 0.66 g/L; Cell density ([2]; Additional Nickel 1 mM, 80 h): 1.23 g/L; Ethanol ([2]; Additional Nickel 1 mM, 80 h): 9.04 g/L; Acetic Acid ([3]; 12 h after inoculation): 0.42 g/L; Cell density ([3]; 12 h after inoculation): 0.16 g/L; Ethanol ([3]; 12 h after inoculation): 0.25 g/L; Fructose ([3]; 12 h after inoculation): 2.87 g/L; Acetic Acid ([3]; 18 h after inoculation): 0.48 g/L; Cell density ([3]; 18 h after inoculation): 0.20 g/L; Ethanol ([3]; 18 h after inoculation): 0.61 g/L; Fructose ([3]; 18 h after inoculation): 2.4 g/L; Acetic Acid ([3]; 30 h after inoculation): 0.45 g/L; Cell density ([3]; 30 h after inoculation): 0.73 g/L; Ethanol ([3]; 30 h after inoculation): 4.19 g/L; Fructose ([3]; 30 h after inoculation): 0 g/L; Acetic Acid ([3]; 80 h after inoculation): 0.38 g/L; Cell density ([3]; 80 h after inoculation): 0.98 g/L; Ethanol ([3]; 80 h after inoculation): 7.60 g/L; Fructose ([3]; 80 h after inoculation): 0 g/L; Acetic Acid ([3]; 96 h after inoculation): 0.31 g/L; Cell density ([3]; 96 h after inoculation): 1.07 g/L; Ethanol ([3]; 96 h after inoculation): 7.81 g/L; Fructose ([3]; 96 h after inoculation): 0 g/L
